The source of these data is patent US20250163104A1, “MACROCYCLIC IMMUNOMODULATORS” (priority 2021, published 2025).

pIC50: −log10 of the molar value. Where two headings read alike, the source gives them in different places. Where a SMILES comes first, the peptide text is derived from it. Bridges are numbered along the chain shown (N, C = ends). [ ]: non-standard residue; d: D form. The star is where a group is joined. ξ: configuration not given here. Phe(3-CF3) = N[C@@H](Cc1cccc(C(F)(F)F)c1)C(=O)O; Phe(4-COOH) = N[C@@H](Cc1ccc(C(=O)O)cc1)C(=O)O; Bip = N[C@@H](Cc1ccc(-c2ccccc2)cc1)C(=O)O; Phe(3-Me) = Cc1cccc(C[C@H](N)C(=O)O)c1; Val(3-OH) = CC(C)(O)[C@H](N)C(=O)O; 4Pal = N[C@@H](Cc1ccncc1)C(=O)O; Cha = N[C@@H](CC1CCCCC1)C(=O)O; Cit = NC(=O)NCCC[C@H](N)C(=O)O; Ile(3ξ) = CCC(C)[C@H](N)C(=O)O; Thr(3ξ) = CC(O)[C@H](N)C(=O)O; Carboxymethyl = O=C(O)C*; Orn = NCCC[C@H](N)C(=O)O; Pra = C#CC[C@H](N)C(=O)O; Dab = NCC[C@H](N)C(=O)O; Dap = NC[C@H](N)C(=O)O; ξPra = C#CCC(N)C(=O)O

The target in the assay is T1, human PD-1 / PD-L1-Ig binding on Jurkat cell line over-expressing human PD-1 (Jurkat-PD-1) (Homo sapiens, UniProt Q15116).
T1 construct: expressed in transfected cells; host or cells: Jurkat
T1 sequence (Q15116 25-288): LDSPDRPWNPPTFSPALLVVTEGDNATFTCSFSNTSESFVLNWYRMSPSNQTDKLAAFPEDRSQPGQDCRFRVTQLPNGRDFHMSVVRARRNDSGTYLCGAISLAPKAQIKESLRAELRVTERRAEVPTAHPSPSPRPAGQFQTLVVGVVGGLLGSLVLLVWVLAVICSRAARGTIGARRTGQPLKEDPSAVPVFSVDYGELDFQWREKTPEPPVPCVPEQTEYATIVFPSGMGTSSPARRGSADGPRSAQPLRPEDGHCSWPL
Kind of assay: Jurkat-PD-1 Cell Binding High-Content Screening Assay (CBA). The class given is cell-based. Particulars: PE-labeled PD-L1-Ig 20 nM final. In outline: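 Binding of fluorescent PD-L1-Ig (phycoerythrin linked via the Ig tag, 20 nM final) to PD-1-overexpressing Jurkat cells was imaged after a 2 h, 37° C compound pretreatment and 1 hour ligand incubation.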

Where [1] appears, read: Jurkat-PD-1 cells, read-out: Jurkat HPD1_PDL1 IC50.

For the compound `CC(C)C[C@@H]1NC(=O)[C@H](CCN)NC(=O)[C@@H](CC(C)C)NC(=O)[C@H](CCCCN)NC(=O)[C@H](CCCNC(N)=O)NC(=O)[C@H](Cc2ccc(-c3ccccc3)cc2)NC(=O)[C@H](C(C)C)NC(=O)[C@H](Cc2c[nH]c3ccccc23)NC(=O)[C@H](CC(=O)O)NC(=O)[C@H](Cc2ccc(O)cc2)NC(=O)[C@H](CC(N)=O)NC(=O)CSC[C@@H](C(=O)NCC(N)=O)NC(=O)[C@H](CO)NC(=O)[C@H](C(C)C)NC1=O` [Compound 1113] ({CH2CO}-NYDWV[Bip][Cit]K[dL][Dab]LVSCG-NH2; thioether N-14), the pIC50 (as a rule, the negative decadic logarithm of the IC50, by convention in mol/L) under setting [1] was 7.81.
For `Cc1cccc(C[C@@H]2NC(=O)[C@H](CC(=O)O)NC(=O)[C@H](Cc3ccc(C(=O)O)cc3)NC(=O)[C@H](Cc3ccncc3)NC(=O)CSC[C@@H](C(=O)N[C@@H](C)C(N)=O)NC(=O)[C@H]([C@@H](C)O)NC(=O)[C@H](C(C)C)NC(=O)[C@H](CC3CCCCC3)NC(=O)[C@H](CCN)NC(=O)[C@@H](CC(C)C)NC(=O)[C@H](CCCN)NC(=O)[C@H](C3CCCCC3)NC(=O)[C@H](Cc3ccc(-c4ccccc4)cc3)NC(=O)[C@H](C(C)C)NC2=O)c1` [Compound 1614], the pIC50 under setting [1] was 7.84.
Consider `CC(C)C[C@H]1NC(=O)[C@H](CCCN)NC(=O)[C@H](CN)NC(=O)[C@H](Cc2ccc(-c3ccccc3)cc2)NC(=O)[C@H](C(C)C)NC(=O)[C@H](Cc2c[nH]c3ccccc23)NC(=O)[C@H](CC(=O)O)NC(=O)[C@H](Cc2ccc(OCC(=O)O)cc2)NC(=O)[C@H](CC#N)NC(=O)CSC[C@@H](C(=O)N[C@@H](C)C(N)=O)NC(=O)[C@H](C(C)O)NC(=O)[C@H](C(C)C)NC(=O)[C@H](CC2CCCCC2)NC(=O)[C@H](CC(N)=O)NC1=O` (stereo partly drawn) [Compound 2539], for which the pIC50 under setting [1] is 6.99.
Still for that read-out and setting: as for `CC[C@H](C)[C@@H]1NC(=O)[C@H](Cc2ccc(-c3ccccc3)cc2)NC(=O)[C@H](C(C)C)NC(=O)[C@H](Cc2cccc(C)c2)NC(=O)[C@H](CC(=O)O)NC(=O)[C@H](Cc2ccc(C(=O)O)cc2)NC(=O)[C@H](CN)NC(=O)CSC[C@@H](C(=O)N[C@@H](C)C(N)=O)NC(=O)[C@H]([C@@H](C)O)NC(=O)[C@H](C(C)C)NC(=O)[C@H](CC2CCCCC2)NC(=O)[C@H](CCN)NC(=O)[C@@H](CC(C)C)NC(=O)[C@H](CCCN)NC1=O` [Compound 1204], the figure is 8.24; as for `CC(C)C[C@H]1NC(=O)[C@H](CCCN)NC(=O)[C@H](CCC(=O)O)NC(=O)[C@H](Cc2ccc(-c3ccccc3)cc2)NC(=O)[C@H](C(C)C)NC(=O)[C@H](Cc2c[nH]c3ccccc23)NC(=O)[C@H](CC(=O)O)NC(=O)[C@H](Cc2ccc(OCC(=O)O)cc2)NC(=O)[C@H](Cc2ccc(OCC(=O)O)cc2)NC(=O)CSC[C@@H](C(=O)N[C@@H](C)C(N)=O)NC(=O)[C@H]([C@@H](C)O)NC(=O)[C@H](C(C)C)NC(=O)[C@H](Cc2ccccc2)NC(=O)[C@H](CCN)NC1=O` [Compound 1668] ({CH2CO}-Y(Carboxymethyl)Y(Carboxymethyl)DWV[Bip]E[Orn][dL][Dab]FVTCA-NH2; thioether N-14), 7.31.
For the compound `CCC(C)[C@@H]1NC(=O)[C@H](Cc2ccc(-c3ccccc3)cc2)NC(=O)[C@H](C(C)C)NC(=O)[C@H](Cc2cccc(C)c2)NC(=O)[C@H](CC(=O)O)NC(=O)[C@H](Cc2ccc(-c3cccc(C(=O)O)c3)cc2)NC(=O)[C@H](Cc2ccccc2)NC(=O)CSC[C@@H](C(=O)N[C@@H](C)C(N)=O)NC(=O)[C@H]([C@@H](C)O)NC(=O)[C@H](C(C)C)NC(=O)[C@H](CC2CCCCC2)NC(=O)[C@H](CCN)NC(=O)[C@@H](CC(C)C)NC(=O)[C@H](CCCN)NC1=O` (stereo partly drawn) [Compound 2223], the pIC50 under setting [1] was 7.13.
Same read-out and setting: as for `CCC(C)[C@@H]1NC(=O)[C@H](Cc2ccc(-c3ccccc3)cc2)NC(=O)[C@H](C(C)C)NC(=O)[C@H](Cc2c[nH]c3ccccc23)NC(=O)[C@H](CC(=O)O)NC(=O)[C@H](Cc2ccc(-c3cccc(C(=O)O)c3)cc2)NC(=O)[C@H](CN)NC(=O)CSC[C@@H](C(=O)N[C@@H](C)C(N)=O)NC(=O)[C@H]([C@@H](C)O)NC(=O)[C@H](C(C)C)NC(=O)[C@H](CC2CCCCC2)NC(=O)[C@H](CCN)NC(=O)[C@@H](CC(C)C)NC(=O)[C@H](CCCN)NC1=O` (stereo partly drawn) [Compound 2219], the figure is 7.87; as for `CC(C)C[C@H]1NC(=O)[C@H](CCCN)NC(=O)[C@H](CCC(=O)O)NC(=O)[C@H](Cc2ccc(-c3ccccc3)cc2)NC(=O)[C@H](C(C)C)NC(=O)[C@H](Cc2cccc(C(F)(F)F)c2)NC(=O)[C@H](CC(=O)O)NC(=O)[C@H](Cc2ccc(O)cc2)NC(=O)[C@H](CC(N)=O)NC(=O)CSC[C@@H](C(=O)N[C@@H](C)C(N)=O)NC(=O)[C@H]([C@@H](C)O)NC(=O)[C@H](C(C)C)NC(=O)[C@H](CC2CCCCC2)NC(=O)[C@H](CCN)NC1=O` [Compound 1457] ({CH2CO}-NYD[Phe(3-CF3)]V[Bip]E[Orn][dL][Dab][Cha]VTCA-NH2; thioether N-14), 7.70.
As for `CC(C)C[C@@H]1NC(=O)[C@H](CCN)NC(=O)[C@@H](CC(C)C)NC(=O)[C@H](CCCCN)NC(=O)[C@H](C(C)C)NC(=O)[C@H](Cc2ccc(-c3ccccc3)cc2)NC(=O)[C@H](C(C)C)NC(=O)[C@H](Cc2c[nH]c3ccccc23)NC(=O)[C@H](CC(N)=O)NC(=O)[C@H](Cc2ccc(O)cc2)NC(=O)[C@H](CC(N)=O)NC(=O)CSC[C@@H](C(=O)NCC(N)=O)NC(=O)[C@H]([C@@H](C)O)NC(=O)[C@H](C(C)C)NC1=O` [Compound 1085] ({CH2CO}-NYNWV[Bip]VK[dL][Dab]LVTCG-NH2; thioether N-14), the pIC50 under setting [1] was 7.65.
`CCC(C)[C@@H]1NC(=O)[C@H](Cc2ccc(-c3ccccc3)cc2)NC(=O)[C@H](CC(C)C)NC(=O)[C@H](Cc2cccc(C)c2)NC(=O)[C@H](CC(=O)O)NC(=O)[C@H](Cc2ccc(C(=O)O)cc2)NC(=O)[C@H](Cc2ccncc2)NC(=O)CSC[C@@H](C(=O)N[C@H](C)C(N)=O)NC(=O)[C@H](C(C)O)NC(=O)[C@H](C(C)C)NC(=O)[C@H](CC2CCCCC2)NC(=O)[C@H](CCN)NC(=O)[C@@H](CC(C)C)NC(=O)[C@H](Cc2cnc[nH]2)NC1=O` (stereo partly drawn) [Compound 2611] ({CH2CO}-[4Pal][Phe(4-COOH)]D[Phe(3-Me)]L[Bip][Ile(3ξ)]H[dL][Dab][Cha]V[Thr(3ξ)]C[dA]-NH2; thioether N-14) had a pIC50 (Jurkat HPD1_PDL1 IC50, Jurkat-PD-1 cells) of 7.72.
`C#CCC(NC(=O)[C@H](CN)NC(=O)[C@@H]1CSCC(=O)N[C@@H](Cc2ccncc2)C(=O)N[C@@H](Cc2ccc(OCC(=O)O)cc2)C(=O)N[C@@H](CC(=O)O)C(=O)N[C@@H](Cc2c[nH]c3ccccc23)C(=O)N[C@@H](C(C)C)C(=O)N[C@@H](Cc2ccc(-c3ccccc3)cc2)C(=O)N[C@@H]([C@@H](C)CC)C(=O)N[C@@H](CCCN)C(=O)N[C@H](CC(C)C)C(=O)N[C@@H](CCN)C(=O)N[C@@H](CC(C)C)C(=O)N[C@@H](C(C)C)C(=O)N[C@@H]([C@@H](C)O)C(=O)N1)C(N)=O` (stereo partly drawn) [Compound 1758] ({CH2CO}-[4Pal]Y(Carboxymethyl)DWV[Bip]I[Orn][dL][Dab]LVTC[Dap][ξPra]-NH2; thioether N-14): the pIC50 under setting [1] is 8.12.
For the compound `CC[C@H](C)[C@@H]1NC(=O)[C@H](Cc2ccc(-c3ccccc3)cc2)NC(=O)[C@H](C(C)C)NC(=O)[C@H](Cc2c[nH]c3ccccc23)NC(=O)[C@H](CC(=O)O)NC(=O)[C@H](Cc2ccc(OCC(=O)O)cc2)NC(=O)[C@H](CN)NC(=O)CSC[C@@H](C(=O)N[C@@H](C)C(N)=O)NC(=O)[C@H]([C@@H](C)O)NC(=O)[C@H](C(C)C)NC(=O)[C@H](Cc2ccccc2)NC(=O)[C@H](CCN)NC(=O)[C@@H](CC(C)C)NC(=O)[C@H](CCCN)NC1=O` [Compound 1658] ({CH2CO}-[Dap]Y(Carboxymethyl)DWV[Bip]I[Orn][dL][Dab]FVTCA-NH2; thioether N-14), the pIC50 under setting [1] is 7.71.
Regarding `C#CC[C@H](NC(=O)[C@@H](C)NC(=O)[C@@H]1CSCC(=O)N[C@@H](Cc2ccncc2)C(=O)N[C@@H](Cc2ccc(OCC(=O)O)cc2)C(=O)N[C@@H](CC(=O)O)C(=O)N[C@@H](Cc2cccc(C)c2)C(=O)N[C@@H](Cc2ccc(OCC(=O)O)cc2)C(=O)N[C@@H](Cc2ccc(-c3ccccc3)cc2)C(=O)N[C@@H](Cc2ccc(OCC(=O)O)cc2)C(=O)N[C@@H](CCCN)C(=O)N[C@H](CC(C)C)C(=O)N[C@@H](CCN)C(=O)N[C@@H](CC2CCCCC2)C(=O)N[C@@H](C(C)(C)O)C(=O)N[C@@H](CO)C(=O)N1)C(N)=O` [Compound 2328] ({CH2CO}-[4Pal]Y(Carboxymethyl)D[Phe(3-Me)]Y(Carboxymethyl)[Bip]Y(Carboxymethyl)[Orn][dL][Dab][Cha][Val(3-OH)]SC[dA][Pra]-NH2; thioether N-14), the pIC50 under setting [1] is 6.20.
Still for that read-out and setting: under `Cc1cccc(C[C@@H]2NC(=O)[C@H](CC(=O)O)NC(=O)[C@H](Cc3ccncc3)NC(=O)[C@H](Cc3ccc(OCC(=O)O)cc3)NC(=O)CSC[C@@H](C(=O)N[C@@H](C)C(N)=O)NC(=O)[C@H]([C@@H](C)O)NC(=O)[C@H](C(C)C)NC(=O)[C@H](CC3CCCCC3)NC(=O)[C@H](CCN)NC(=O)[C@@H](CC(C)C)NC(=O)[C@H](CCCN)NC(=O)[C@H](CCC(=O)O)NC(=O)[C@H](Cc3ccc(-c4ccccc4)cc3)NC(=O)[C@H](C(C)C)NC2=O)c1` [Compound 1419] ({CH2CO}-Y(Carboxymethyl)[4Pal]D[Phe(3-Me)]V[Bip]E[Orn][dL][Dab][Cha]VTCA-NH2; thioether N-14) stands 8.14; under `Cc1cccc(C[C@@H]2NC(=O)[C@H](CC(=O)O)NC(=O)[C@H](Cc3ccc(C(=O)O)cc3)NC(=O)[C@H](Cc3ccncc3)NC(=O)CSC[C@@H](C(=O)N[C@@H](CO)C(N)=O)NC(=O)[C@H](CO)NC(=O)[C@H](C(C)C)NC(=O)[C@H](CC3CCCCC3)NC(=O)[C@H](CCN)NC(=O)[C@@H](CC(C)C)NC(=O)[C@H](CCCN)NC(=O)[C@H](Cc3ccc(OCC(=O)O)cc3)NC(=O)[C@H](Cc3ccc(-c4ccccc4)cc3)NC(=O)[C@H](Cc3ccc(OCC(=O)O)cc3)NC2=O)c1` [Compound 2295] ({CH2CO}-[4Pal][Phe(4-COOH)]D[Phe(3-Me)]Y(Carboxymethyl)[Bip]Y(Carboxymethyl)[Orn][dL][Dab][Cha]VSCS-NH2; thioether N-14), 7.93.
